This passage reports crystallinity and hygroscopic stability results from US6844349B2, “Salt forms of E-2-methoxy-N-(3-{4-[3 methyl-4-(6-methyl-pyridin-3-yloxy)-phenylamino]-quinazolin-6-yl}-allyl)-acetamide and method of production” (Pfizer Inc, priority 2001, dated 2005).

Structures are written as SMILES.

Data set [1] in a line: crystallinity of the complexes. The conditions noted are these: solid complex; i.e., substantially free of amorphous material. Format: physicochemical.
Data set [2] is described as follows: hygroscopic stability of the complexes. The class given is physicochemical. Conditions: solid complex; weight changes of the active ingredient during manufacture of capsules or tablets.

`COCC(=O)NC/C=C/c1ccc2ncnc(Nc3ccc(Oc4ccc(C)nc4)c(C)c3)c2c1.O=C(O)CC(=O)O.O=C(O)CC(=O)O` [di-malonate, Di-malonate Complex of E-2-Methoxy-N-(3-{4-[3-methyl-4-(6-methyl-pyridin-3-yloxy)-phenylamino]-quinazolin-6-yl}-allyl)-acetamide]: the crystallinity entry in data set [1] is “high crystallinity”. Further, the hygroscopic stability entry in data set [2] is recorded as “substantially hygroscopically stable”.
Take `COCC(=O)NC/C=C/c1ccc2ncnc(Nc3ccc(Oc4ccc(C)nc4)c(C)c3)c2c1.COCC(=O)NC/C=C/c1ccc2ncnc(Nc3ccc(Oc4ccc(C)nc4)c(C)c3)c2c1.O=C(O)CCC(=O)O.O=C(O)CCC(=O)O.O=C(O)CCC(=O)O` [sesquisuccinate, Sesquisuccinate Complex of E-2-Methoxy-N-(3-{4-[3-methyl-4-(6-methyl-pyridin-3-yloxy)-phenylamino]-quinazolin-6-yl}-allyl)-acetamide]: in data set [1], the crystallinity entry is reported as “high crystallinity”. Also, the hygroscopic stability result in data set [2] is “substantially hygroscopically stable”.
